Structures can show the parent of a compound that is named as a salt.
Assays:
Assay type in all cases: cell-based
E. coli 257 = test: In vitro antibacterial activity (MIC, Mueller-Hinton broth); details: Escherichia coli, 257, E. coli 257; read-out: MIC
How it was run: (§1)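 Broth microdilution in Mueller-Hinton broth, drug range 128 to 0.008 μg/ml; each well inoculated with 1.5 μl of a 10^-2 dilution of overnight culture. Sealed trays incubated overnight at 37° C. MIC is the lowest concentration showing no visible growth.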

S. marcescens S4 = test: In vitro antibacterial activity (MIC); details: Serratia marcescens, S4, S. marcescens S4; read-out: MIC
How it was run: as §1

E. aerogenes 503-478 = test: In vitro antibacterial activity (MIC); details: Klebsiella aerogenes, 503478, E. aerogenes 503-478; read-out: MIC
How it was run: as §1

E. coli 4 = test: In vitro antibacterial activity (MIC); details: Escherichia coli, 4, E. coli 4; read-out: MIC
How it was run: as §1

S. pyogenes 503-782 = test: In vitro antibacterial activity (MIC); details: Streptococcus pyogenes, 503782; S. pyogenes 503-782; read-out: MIC
How it was run: as §1

S. aureus Giorgio = test: In vitro antibacterial activity (MIC); details: Staphylococcus aureus, S. aureus Giorgio; read-out: MIC
How it was run: as §1

S. pneumoniae SC = test: In vitro antibacterial activity (MIC); details: Streptococcus pneumoniae, read-out: MIC
How it was run: as §1

P. mirabilis 503-1136 = test: In vitro antibacterial activity (MIC); details: Proteus mirabilis, 5031136, P. mirabilis 503-1136; read-out: MIC
How it was run: as §1

S. marcescens S3 = test: In vitro antibacterial activity (MIC); details: Serratia marcescens; S. marcescens S3; read-out: MIC
How it was run: as §1

E. coli 48 = test: In vitro antibacterial activity (MIC); details: Escherichia coli, 48, E. coli 48; read-out: MIC
How it was run: as §1

P. mirabilis 2 = test: In vitro antibacterial activity (MIC); details: Proteus mirabilis, 2, P. mirabilis 2; read-out: MIC
How it was run: as §1

S. aureus Smith = test: In vitro antibacterial activity (MIC); details: Staphylococcus aureus, S. aureus Smith; read-out: MIC
How it was run: as §1

E. aerogenes 83 = test: In vitro antibacterial activity (MIC); details: Klebsiella aerogenes, 83, E. aerogenes 83; read-out: MIC
How it was run: as §1

C. diversus CDC 1663-72 = test: In vitro antibacterial activity (MIC); details: Citrobacter koseri, CDC166372; C. diversus CDC 1663-72; read-out: MIC
How it was run: as §1

S. typhi P58A = test: In vitro antibacterial activity (MIC); details: Salmonella enterica, TYPHI
How it was run: as §1

P. vulgaris 101 = test: In vitro antibacterial activity (MIC); details: Proteus vulgaris, 101, P. vulgaris 101; read-out: MIC
How it was run: as §1

E. cloacae 9295 = test: In vitro antibacterial activity (MIC); details: Enterobacter cloacae, 9295, E. cloacae 9295; read-out: MIC
How it was run: as §1

S. pyogenes 4 = test: In vitro antibacterial activity (MIC); details: Streptococcus pyogenes, 4, S. pyogenes 4; read-out: MIC
How it was run: as §1

S. pneumoniae 6302 = test: In vitro antibacterial activity (MIC); details: Streptococcus pneumoniae, 6302, S. pneumoniae 6302; read-out: MIC
How it was run: as §1

P. vulgaris ATCC 6380 = test: In vitro antibacterial activity (MIC); details: Proteus vulgaris, ATCC6380, P. vulgaris ATCC 6380; read-out: MIC
How it was run: as §1

S. marcescens S1 = test: In vitro antibacterial activity (MIC); details: Serratia marcescens, S1, S. marcescens S1; read-out: MIC
How it was run: as §1

K. pneumoniae 4964 = test: In vitro antibacterial activity (MIC); details: Klebsiella pneumoniae, 4964, K. pneumoniae 4964; read-out: MIC
How it was run: as §1

S. schottmuelleri = test: In vitro antibacterial activity (MIC); details: read-out: MIC
How it was run: as §1

K. pneumoniae HE7 = test: In vitro antibacterial activity (MIC); details: Klebsiella pneumoniae; K. pneumoniae HE7; read-out: MIC
How it was run: as §1

E. coli 387-1 = test: In vitro antibacterial activity (MIC); details: Escherichia coli, 3871, E. coli 387-1; read-out: MIC
How it was run: as §1

S. marcescens S714 = test: In vitro antibacterial activity (MIC); details: Serratia marcescens, S714, S. marcescens S714; read-out: MIC
How it was run: as §1

E. cloacae 214 = test: In vitro antibacterial activity (MIC); details: Enterobacter cloacae, 214, E. cloacae 214; read-out: MIC
How it was run: as §1

P. aeruginosa POW 151 = test: In vitro antibacterial activity (MIC); details: Pseudomonas aeruginosa, POW151
How it was run: as §1

E. cloacae 24 = test: In vitro antibacterial activity (MIC); details: Enterobacter cloacae, 24, E. cloacae 24; read-out: MIC
How it was run: as §1

C. freundii CDC6 = test: In vitro antibacterial activity (MIC); details: Citrobacter freundii, CDC6, C. freundii CDC6; read-out: MIC
How it was run: as §1

P. aeruginosa 5712 = test: In vitro antibacterial activity (MIC); details: Pseudomonas aeruginosa; P. aeruginosa 5712; read-out: MIC
How it was run: as §1

P. aeruginosa B = test: In vitro antibacterial activity (MIC); details: Pseudomonas aeruginosa, read-out: MIC
How it was run: as §1

P. aeruginosa 8710 = test: In vitro antibacterial activity (MIC); details: Pseudomonas aeruginosa; P. aeruginosa 8710; read-out: MIC
How it was run: as §1

E. cloacae 9570A = test: In vitro antibacterial activity (MIC); details: Enterobacter cloacae, read-out: MIC
How it was run: as §1

K. pneumoniae 503-994 = test: In vitro antibacterial activity (MIC); details: Klebsiella pneumoniae, 503994, K. pneumoniae 503-994; read-out: MIC
How it was run: as §1

S. pneumoniae 6301 = test: In vitro antibacterial activity (MIC); details: Streptococcus pneumoniae, 6301, S. pneumoniae 6301; read-out: MIC
How it was run: as §1

P. aeruginosa 6148B = test: In vitro antibacterial activity (MIC); details: Pseudomonas aeruginosa, read-out: MIC
How it was run: as §1

S. marcescens 5805 = test: In vitro antibacterial activity (MIC); details: Serratia marcescens, 5805, S. marcescens 5805; read-out: MIC
How it was run: as §1

S. marcescens S147 = test: In vitro antibacterial activity (MIC); details: Serratia marcescens; S. marcescens S147; read-out: MIC
How it was run: as §1

K. pneumoniae 5096 = test: In vitro antibacterial activity (MIC); details: Klebsiella pneumoniae; K. pneumoniae 5096; read-out: MIC
How it was run: as §1

C. freundii 8ASM = test: In vitro antibacterial activity (MIC); details: Citrobacter freundii, 8ASM, C. freundii 8ASM; read-out: MIC
How it was run: as §1

K. pneumoniae 35 = test: In vitro antibacterial activity (MIC); details: Klebsiella pneumoniae; K. pneumoniae 35; read-out: MIC
How it was run: as §1

E. coli 5152 = test: In vitro antibacterial activity (MIC); details: Escherichia coli, 5152, E. coli 5152; read-out: MIC
How it was run: as §1

P. aeruginosa 503-56 = test: In vitro antibacterial activity (MIC); details: Pseudomonas aeruginosa, 50356, P. aeruginosa 503-56; read-out: MIC
How it was run: as §1

E. cloacae 5699 = test: In vitro antibacterial activity (MIC); details: Enterobacter cloacae, 5699, E. cloacae 5699; read-out: MIC
How it was run: as §1

CC1(C)S[C@@H]2[C@H](N=CN3CCC(CC4=NCCN4)CC3)C(=O)N2[C@H]1C(=O)O [M, [2S-(2alpha,5alpha,6beta)]-6-[[[4-[(4,5-dihydro-1H-imidazol-2-yl)methyl]-1-piperidinyl]methylene]amino]-3,3-dimethyl-7-oxo-4-thia-1-azabicyclo[3.2.0]heptane-2-carboxylic acid hydrochloride]
MIC (E. coli 257): 0.125 µg/mL
MIC (S. marcescens S4): 1 µg/mL
MIC (E. aerogenes 503-478): 4 µg/mL
MIC (E. coli 4): 0.062 µg/mL
MIC (S. pyogenes 503-782): 32 µg/mL
MIC (S. aureus Giorgio): 2 µg/mL
MIC (S. pneumoniae SC): 1 µg/mL
MIC (P. mirabilis 503-1136): 8 µg/mL
MIC (S. marcescens S3): 0.125 µg/mL
MIC (E. coli 48): 0.125 µg/mL
MIC (P. mirabilis 2): 0.5 µg/mL
MIC (S. aureus Smith): 4 µg/mL
MIC (E. aerogenes 83): 2 µg/mL
MIC (C. diversus CDC 1663-72): 0.062 µg/mL
MIC (S. typhi P58A): 0.062 µg/mL
MIC (P. vulgaris 101): 16 µg/mL
MIC (E. cloacae 9295): 0.5 µg/mL
MIC (S. pyogenes 4): 1 µg/mL
MIC (S. pneumoniae 6302): 1 µg/mL
MIC (P. vulgaris ATCC 6380): 0.25 µg/mL
MIC (S. marcescens S1): 0.25 µg/mL
MIC (K. pneumoniae 4964): 2 µg/mL
MIC (S. schottmuelleri): 0.062 µg/mL
MIC (K. pneumoniae HE7): > 128 µg/mL
MIC (E. coli 387-1): 0.062 µg/mL
MIC (S. marcescens S714): 0.5 µg/mL
MIC (E. cloacae 214): 0.25 µg/mL
MIC (P. aeruginosa POW 151): > 128 µg/mL
MIC (E. cloacae 24): 0.5 µg/mL
MIC (C. freundii CDC6): 0.125 µg/mL
MIC (P. aeruginosa 5712): 128 µg/mL
MIC (P. aeruginosa B): 0.25 µg/mL
MIC (P. aeruginosa 8710): 64 µg/mL
MIC (E. cloacae 9570A): 0.25 µg/mL
MIC (K. pneumoniae 503-994): 0.25 µg/mL
MIC (S. pneumoniae 6301): 1 µg/mL
MIC (P. aeruginosa 6148B): 32 µg/mL
MIC (S. marcescens 5805): 1 µg/mL
MIC (S. marcescens S147): 0.25 µg/mL
MIC (K. pneumoniae 5096): > 128 µg/mL
MIC (C. freundii 8ASM): 0.062 µg/mL
MIC (K. pneumoniae 35): 1 µg/mL
MIC (E. coli 5152): 16 µg/mL
MIC (P. aeruginosa 503-56): 32 µg/mL
MIC (E. cloacae 5699): 0.25 µg/mL

— US4605744A, “Imidazole derivatives” (Hoffmann-La Roche Inc., priority 1985, dated 1986)
